Assay [1] deals with T1, Ribosyldihydronicotinamide dehydrogenase [quinone] (Homo sapiens, UniProt P16083).
T1 sequence (P16083 whole entry): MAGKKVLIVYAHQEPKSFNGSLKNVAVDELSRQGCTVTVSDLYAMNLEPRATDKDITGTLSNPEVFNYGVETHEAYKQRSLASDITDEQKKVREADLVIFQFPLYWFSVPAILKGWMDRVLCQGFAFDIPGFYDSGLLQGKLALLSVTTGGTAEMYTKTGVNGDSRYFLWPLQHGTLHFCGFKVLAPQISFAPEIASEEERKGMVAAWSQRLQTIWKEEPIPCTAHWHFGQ

In assay [2] the target is Chromodomain-helicase-DNA-binding protein 4 (Homo sapiens, UniProt Q14839).
In assay [3] the target is T2, Serine/threonine-protein kinase TAO3 (Homo sapiens, UniProt Q9H2K8).
T2 sequence (Q9H2K8 whole entry): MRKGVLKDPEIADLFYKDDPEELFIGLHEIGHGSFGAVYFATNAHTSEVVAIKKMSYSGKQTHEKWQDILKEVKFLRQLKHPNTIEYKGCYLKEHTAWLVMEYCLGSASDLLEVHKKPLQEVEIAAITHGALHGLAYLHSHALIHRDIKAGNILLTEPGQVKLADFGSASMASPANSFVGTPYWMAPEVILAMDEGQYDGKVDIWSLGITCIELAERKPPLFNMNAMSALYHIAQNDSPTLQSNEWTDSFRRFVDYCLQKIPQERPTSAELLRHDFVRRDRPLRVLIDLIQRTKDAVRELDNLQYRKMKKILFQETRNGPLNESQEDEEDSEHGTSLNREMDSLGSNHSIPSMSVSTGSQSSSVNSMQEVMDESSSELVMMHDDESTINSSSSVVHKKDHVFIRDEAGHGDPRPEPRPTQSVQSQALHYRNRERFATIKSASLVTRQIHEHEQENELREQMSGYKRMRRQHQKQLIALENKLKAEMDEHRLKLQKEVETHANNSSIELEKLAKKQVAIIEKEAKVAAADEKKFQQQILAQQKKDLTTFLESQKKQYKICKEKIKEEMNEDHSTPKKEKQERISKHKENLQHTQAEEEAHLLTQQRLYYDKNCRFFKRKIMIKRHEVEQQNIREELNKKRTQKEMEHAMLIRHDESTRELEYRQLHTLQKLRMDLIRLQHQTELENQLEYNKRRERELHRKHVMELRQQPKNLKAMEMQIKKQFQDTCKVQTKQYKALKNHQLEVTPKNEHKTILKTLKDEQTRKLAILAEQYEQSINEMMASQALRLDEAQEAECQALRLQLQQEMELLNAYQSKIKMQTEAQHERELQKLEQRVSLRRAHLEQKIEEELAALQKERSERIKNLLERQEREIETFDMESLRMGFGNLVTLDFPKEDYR

Assay [4] has as its target Serine/threonine-protein kinase PAK 4 (Homo sapiens, UniProt O96013).
Assay [5] addresses Mitogen-activated protein kinase 8 (Homo sapiens, UniProt P45983).
Assay [6] has as its target T3, Tyrosine-protein kinase Tec (Homo sapiens, UniProt P42680).
T3 sequence (P42680 whole entry): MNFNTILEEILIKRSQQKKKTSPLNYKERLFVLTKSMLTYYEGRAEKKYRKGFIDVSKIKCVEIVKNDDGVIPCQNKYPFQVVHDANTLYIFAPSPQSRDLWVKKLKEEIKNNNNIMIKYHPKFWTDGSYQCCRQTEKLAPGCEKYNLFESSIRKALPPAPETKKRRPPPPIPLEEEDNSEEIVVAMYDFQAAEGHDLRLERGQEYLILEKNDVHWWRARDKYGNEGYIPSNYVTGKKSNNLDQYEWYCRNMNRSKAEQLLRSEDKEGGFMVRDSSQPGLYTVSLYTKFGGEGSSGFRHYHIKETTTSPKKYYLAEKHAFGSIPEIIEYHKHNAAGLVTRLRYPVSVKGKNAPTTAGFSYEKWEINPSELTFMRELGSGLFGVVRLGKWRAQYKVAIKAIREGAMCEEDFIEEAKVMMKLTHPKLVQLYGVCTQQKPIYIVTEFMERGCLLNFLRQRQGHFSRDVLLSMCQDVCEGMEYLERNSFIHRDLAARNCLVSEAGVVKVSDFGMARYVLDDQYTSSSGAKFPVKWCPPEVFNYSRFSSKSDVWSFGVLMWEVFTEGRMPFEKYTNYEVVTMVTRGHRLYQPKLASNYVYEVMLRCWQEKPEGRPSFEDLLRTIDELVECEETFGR

Assay [7] has as its target Cyclin-dependent kinase 5 (Homo sapiens, UniProt Q00535).
In assay [8] the target is Maternal embryonic leucine zipper kinase (Homo sapiens, UniProt Q14680).
Chain of Maternal embryonic leucine zipper kinase (Q14680 whole entry): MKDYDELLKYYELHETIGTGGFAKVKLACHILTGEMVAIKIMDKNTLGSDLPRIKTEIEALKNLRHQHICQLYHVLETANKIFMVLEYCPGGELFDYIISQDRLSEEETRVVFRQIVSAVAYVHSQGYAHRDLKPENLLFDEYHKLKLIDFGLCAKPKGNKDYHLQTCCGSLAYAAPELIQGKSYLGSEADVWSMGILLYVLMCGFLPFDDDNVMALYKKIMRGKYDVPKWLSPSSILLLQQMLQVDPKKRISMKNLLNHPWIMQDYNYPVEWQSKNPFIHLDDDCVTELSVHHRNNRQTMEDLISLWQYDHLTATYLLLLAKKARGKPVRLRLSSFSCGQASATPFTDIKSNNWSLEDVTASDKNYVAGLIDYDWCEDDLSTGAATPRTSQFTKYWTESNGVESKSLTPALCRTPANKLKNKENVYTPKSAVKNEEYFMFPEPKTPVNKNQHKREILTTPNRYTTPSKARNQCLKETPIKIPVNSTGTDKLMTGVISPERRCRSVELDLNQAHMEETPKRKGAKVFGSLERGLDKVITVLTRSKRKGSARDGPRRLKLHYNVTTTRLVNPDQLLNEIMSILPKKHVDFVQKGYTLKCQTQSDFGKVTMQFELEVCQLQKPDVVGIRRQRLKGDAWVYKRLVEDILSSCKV
For assay [9], the target named is Serine/threonine-protein kinase N2 (Homo sapiens, UniProt Q16513).
Chain of Serine/threonine-protein kinase N2 (Q16513 whole entry): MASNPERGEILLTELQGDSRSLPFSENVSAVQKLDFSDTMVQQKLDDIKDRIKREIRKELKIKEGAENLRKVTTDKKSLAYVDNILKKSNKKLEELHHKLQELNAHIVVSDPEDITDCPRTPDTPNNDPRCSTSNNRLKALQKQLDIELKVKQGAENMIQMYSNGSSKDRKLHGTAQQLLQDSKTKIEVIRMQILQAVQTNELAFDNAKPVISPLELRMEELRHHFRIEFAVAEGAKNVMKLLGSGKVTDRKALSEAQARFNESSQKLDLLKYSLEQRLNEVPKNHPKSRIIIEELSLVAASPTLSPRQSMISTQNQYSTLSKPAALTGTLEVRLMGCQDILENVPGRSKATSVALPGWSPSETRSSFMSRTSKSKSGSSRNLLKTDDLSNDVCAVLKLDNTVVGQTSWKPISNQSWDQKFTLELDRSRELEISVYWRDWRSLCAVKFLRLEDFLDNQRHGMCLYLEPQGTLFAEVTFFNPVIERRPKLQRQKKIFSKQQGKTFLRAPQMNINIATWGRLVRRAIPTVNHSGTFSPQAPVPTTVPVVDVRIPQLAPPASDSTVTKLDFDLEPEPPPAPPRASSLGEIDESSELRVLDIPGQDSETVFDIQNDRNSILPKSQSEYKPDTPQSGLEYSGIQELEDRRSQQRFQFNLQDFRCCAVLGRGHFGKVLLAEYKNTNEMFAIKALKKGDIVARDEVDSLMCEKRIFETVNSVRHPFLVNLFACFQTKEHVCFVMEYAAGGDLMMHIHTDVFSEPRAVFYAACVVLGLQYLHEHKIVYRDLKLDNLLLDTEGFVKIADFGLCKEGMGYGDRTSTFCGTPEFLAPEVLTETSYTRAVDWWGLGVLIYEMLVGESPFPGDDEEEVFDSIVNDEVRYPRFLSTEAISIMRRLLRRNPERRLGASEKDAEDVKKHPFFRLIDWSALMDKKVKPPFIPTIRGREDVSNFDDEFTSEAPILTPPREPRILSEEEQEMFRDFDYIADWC
The target in assay [10] is Interleukin-1 receptor-associated kinase 1 (Homo sapiens, UniProt P51617).
Chain of Interleukin-1 receptor-associated kinase 1 (P51617 whole entry): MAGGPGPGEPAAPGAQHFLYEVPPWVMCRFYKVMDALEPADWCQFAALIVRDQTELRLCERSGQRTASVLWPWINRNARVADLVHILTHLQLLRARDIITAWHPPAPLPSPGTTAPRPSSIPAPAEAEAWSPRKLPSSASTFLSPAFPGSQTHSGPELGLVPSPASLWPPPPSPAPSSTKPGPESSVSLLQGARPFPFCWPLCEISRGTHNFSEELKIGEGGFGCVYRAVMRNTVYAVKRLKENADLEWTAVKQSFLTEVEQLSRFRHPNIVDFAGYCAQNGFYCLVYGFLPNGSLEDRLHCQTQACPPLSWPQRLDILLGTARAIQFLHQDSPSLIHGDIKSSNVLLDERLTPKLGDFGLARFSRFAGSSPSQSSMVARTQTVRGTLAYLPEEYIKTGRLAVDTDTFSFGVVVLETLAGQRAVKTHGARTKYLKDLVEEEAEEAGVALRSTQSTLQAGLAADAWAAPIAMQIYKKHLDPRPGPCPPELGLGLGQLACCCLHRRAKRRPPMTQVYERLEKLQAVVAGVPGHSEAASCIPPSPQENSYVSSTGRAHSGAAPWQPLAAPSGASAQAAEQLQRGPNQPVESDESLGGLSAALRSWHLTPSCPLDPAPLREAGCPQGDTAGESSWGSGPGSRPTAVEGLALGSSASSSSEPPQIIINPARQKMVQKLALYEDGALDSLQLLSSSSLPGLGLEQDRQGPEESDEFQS
Assay [11] concerns the target Activin receptor type-2B (Homo sapiens, UniProt Q13705).
The target in assay [12] is T4, Serine/threonine-protein kinase STK11 (Homo sapiens, UniProt Q15831).
T4 sequence (Q15831 whole entry): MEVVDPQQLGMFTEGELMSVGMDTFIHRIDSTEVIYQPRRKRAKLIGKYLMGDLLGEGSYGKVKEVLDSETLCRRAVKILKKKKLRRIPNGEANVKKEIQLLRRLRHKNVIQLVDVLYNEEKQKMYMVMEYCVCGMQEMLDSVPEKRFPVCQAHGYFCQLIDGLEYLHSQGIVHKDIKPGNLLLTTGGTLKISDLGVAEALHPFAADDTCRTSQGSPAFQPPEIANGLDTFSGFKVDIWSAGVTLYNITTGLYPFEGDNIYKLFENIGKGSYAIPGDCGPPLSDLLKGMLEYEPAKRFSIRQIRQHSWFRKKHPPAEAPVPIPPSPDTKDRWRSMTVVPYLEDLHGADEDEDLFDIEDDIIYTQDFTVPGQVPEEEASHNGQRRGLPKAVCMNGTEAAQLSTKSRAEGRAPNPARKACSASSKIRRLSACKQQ

Activity calls are given as the source filed them. Rule as the data show it, for most assays here: actives have a measured Kd and inactives only a lower limit.
Also: in the data inactive means no Kd found up to 30 µM.

Chain of Cyclin-dependent kinase 5 (Q00535 whole entry): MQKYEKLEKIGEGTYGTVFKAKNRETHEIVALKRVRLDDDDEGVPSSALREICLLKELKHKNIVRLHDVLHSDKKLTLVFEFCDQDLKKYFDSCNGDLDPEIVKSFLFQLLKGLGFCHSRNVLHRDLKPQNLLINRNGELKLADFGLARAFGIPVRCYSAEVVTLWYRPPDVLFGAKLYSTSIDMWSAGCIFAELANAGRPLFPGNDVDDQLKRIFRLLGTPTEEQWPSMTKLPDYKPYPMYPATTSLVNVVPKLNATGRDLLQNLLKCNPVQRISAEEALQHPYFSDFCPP
Chain of Chromodomain-helicase-DNA-binding protein 4 (Q14839 whole entry): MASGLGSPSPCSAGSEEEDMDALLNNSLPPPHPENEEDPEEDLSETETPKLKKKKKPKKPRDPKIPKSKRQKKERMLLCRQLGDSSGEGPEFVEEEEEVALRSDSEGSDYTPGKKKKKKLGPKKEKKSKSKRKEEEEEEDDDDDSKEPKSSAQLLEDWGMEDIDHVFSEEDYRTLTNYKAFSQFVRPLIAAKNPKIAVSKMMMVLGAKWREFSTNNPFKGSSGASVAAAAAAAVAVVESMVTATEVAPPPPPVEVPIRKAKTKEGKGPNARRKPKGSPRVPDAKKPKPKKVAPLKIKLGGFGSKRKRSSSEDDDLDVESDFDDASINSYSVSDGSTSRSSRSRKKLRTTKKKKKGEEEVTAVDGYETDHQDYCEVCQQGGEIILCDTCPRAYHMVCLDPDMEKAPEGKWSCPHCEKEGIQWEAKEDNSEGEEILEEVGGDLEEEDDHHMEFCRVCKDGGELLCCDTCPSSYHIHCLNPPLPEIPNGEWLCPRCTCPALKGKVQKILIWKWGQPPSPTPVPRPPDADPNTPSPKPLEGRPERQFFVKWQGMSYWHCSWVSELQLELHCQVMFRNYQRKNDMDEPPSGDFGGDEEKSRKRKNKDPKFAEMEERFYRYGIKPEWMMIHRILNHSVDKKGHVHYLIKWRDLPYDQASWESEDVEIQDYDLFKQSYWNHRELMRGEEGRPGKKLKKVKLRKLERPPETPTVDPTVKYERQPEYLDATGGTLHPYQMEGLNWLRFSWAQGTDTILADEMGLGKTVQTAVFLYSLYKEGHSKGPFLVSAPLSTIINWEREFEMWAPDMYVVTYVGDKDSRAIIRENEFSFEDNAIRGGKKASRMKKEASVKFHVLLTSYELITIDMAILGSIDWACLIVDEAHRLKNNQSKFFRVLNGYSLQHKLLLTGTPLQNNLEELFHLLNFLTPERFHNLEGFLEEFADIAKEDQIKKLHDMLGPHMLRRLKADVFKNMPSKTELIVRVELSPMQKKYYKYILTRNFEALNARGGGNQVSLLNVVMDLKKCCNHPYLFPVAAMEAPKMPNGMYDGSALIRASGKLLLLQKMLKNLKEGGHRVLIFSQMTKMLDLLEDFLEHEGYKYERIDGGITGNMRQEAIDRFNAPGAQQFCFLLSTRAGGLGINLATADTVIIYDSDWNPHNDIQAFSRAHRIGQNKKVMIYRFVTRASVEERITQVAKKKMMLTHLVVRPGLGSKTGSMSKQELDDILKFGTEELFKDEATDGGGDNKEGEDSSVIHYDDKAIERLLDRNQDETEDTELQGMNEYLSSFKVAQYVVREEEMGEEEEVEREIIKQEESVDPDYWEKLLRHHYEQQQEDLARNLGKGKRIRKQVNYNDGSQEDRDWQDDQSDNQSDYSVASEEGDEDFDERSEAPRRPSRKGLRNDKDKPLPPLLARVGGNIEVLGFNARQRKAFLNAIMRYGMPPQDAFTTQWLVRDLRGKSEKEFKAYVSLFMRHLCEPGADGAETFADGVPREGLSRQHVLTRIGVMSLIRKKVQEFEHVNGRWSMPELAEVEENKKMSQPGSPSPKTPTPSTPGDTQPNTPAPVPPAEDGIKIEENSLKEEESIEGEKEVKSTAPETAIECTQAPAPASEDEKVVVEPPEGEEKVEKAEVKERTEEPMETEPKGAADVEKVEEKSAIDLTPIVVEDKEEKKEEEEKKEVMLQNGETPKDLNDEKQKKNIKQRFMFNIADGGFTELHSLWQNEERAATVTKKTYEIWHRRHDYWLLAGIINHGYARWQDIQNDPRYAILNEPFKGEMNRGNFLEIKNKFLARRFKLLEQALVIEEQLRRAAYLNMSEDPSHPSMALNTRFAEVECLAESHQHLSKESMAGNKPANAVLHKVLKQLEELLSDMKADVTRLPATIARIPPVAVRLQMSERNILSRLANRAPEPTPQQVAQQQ
Chain of Activin receptor type-2B (Q13705 whole entry): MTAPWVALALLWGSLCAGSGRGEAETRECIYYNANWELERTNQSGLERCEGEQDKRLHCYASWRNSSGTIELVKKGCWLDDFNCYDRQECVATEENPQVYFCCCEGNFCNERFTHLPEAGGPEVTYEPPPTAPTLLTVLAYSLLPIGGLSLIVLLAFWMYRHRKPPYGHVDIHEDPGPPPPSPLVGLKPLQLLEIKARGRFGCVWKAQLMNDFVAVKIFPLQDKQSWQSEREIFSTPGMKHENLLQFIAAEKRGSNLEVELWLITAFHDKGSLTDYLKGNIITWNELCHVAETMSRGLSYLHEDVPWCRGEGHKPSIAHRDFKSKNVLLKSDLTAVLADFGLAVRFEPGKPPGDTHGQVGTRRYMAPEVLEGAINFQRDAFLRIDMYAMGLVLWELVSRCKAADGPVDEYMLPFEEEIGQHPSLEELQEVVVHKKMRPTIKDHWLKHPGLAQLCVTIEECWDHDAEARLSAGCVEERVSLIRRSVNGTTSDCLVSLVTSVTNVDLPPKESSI

Consider `CC1(C)CNc2cc(NC(=O)c3cccnc3NCc3ccncc3)ccc21` [MOTESANIB], for which the Kd in assay [1] and in [2] was > 30 µM (inactive) each time.

Consider `COc1cc2c(N3CCN(C(=O)Nc4ccc(OC(C)C)cc4)CC3)ncnc2cc1OCCCN1CCCCC1` [TANDUTINIB], for which the Kd in assay [1] and in assay [2] was > 30 µM (inactive) each time.

Take `O=C(O)c1ccc2c(c1)nc(Nc1cccc(Cl)c1)c1ccncc12` [SILMITASERTIB]: the Kd (commonly the free concentration of one partner at which half of the binding sites on the other are occupied at equilibrium, for simple one-to-one binding) in assay [3] was > 30 µM (inactive); in [4], > 30 µM (inactive); in assay [5], > 30 µM (inactive); in [6], > 30 µM (inactive); in [1], > 30 µM (inactive); in [7] it was 0.514 µM (active). Besides, the Kd in assay [2], in assay [8], in assay [9], in assay [10], in assay [11] and in assay [12] was > 30 µM (inactive) throughout.

Take `CCN(CCCOc1ccc2c(Nc3cc(CC(=O)Nc4cccc(F)c4)n[nH]3)ncnc2c1)CCOP(=O)(O)O` [BARASERTIB]: the Kd in [3], in assay [6], in [1], in assay [2], in [9] and in [10] was > 30 µM (inactive) each time. Further, the Kd in [11] and in [12] was > 30 µM (inactive) each time.

In the case of `c1cc(OCCN2CCCCC2)cc(-c2n[nH]c3ccc(-c4nc[nH]n4)cc23)c1` [CC-401], the Kd in [3] was > 30 µM (inactive); in assay [4], > 30 µM (inactive); in assay [5], 0.636 µM (active); in [6], > 30 µM (inactive); in assay [1], 1.41 µM (active); in assay [7] it was > 30 µM (inactive). The Kd was > 30 µM (inactive) in assay [2]; 0.217 µM (active) in assay [8]; > 30 µM (inactive) in assay [9]; > 30 µM (inactive) in assay [10]; > 30 µM (inactive) in assay [11]; > 30 µM (inactive) in assay [12].

As to `CN(C)C/C=C/C(=O)Nc1cc2c(Nc3ccc(F)c(Cl)c3)ncnc2cc1O[C@H]1CCOC1` [AFATINIB], the Kd in [1] and in [2] was > 30 µM (inactive) each time.

In the case of `CCN1CCN(Cc2ccc(Nc3ncc(F)c(-c4cc(F)c5nc(C)n(C(C)C)c5c4)n3)nc2)CC1` [ABEMACICLIB], the Kd in [3] is 1.72 µM (active); in assay [4], > 30 µM (inactive); in [5], 3.76 µM (active); in [6], > 30 µM (inactive); in [1] it was > 30 µM (inactive); in [2], > 30 µM (inactive). In addition, the Kd in assay [8] is > 30 µM (inactive); in assay [9], > 30 µM (inactive); in [10], 0.126 µM (active); in assay [11], > 30 µM (inactive); in assay [12] it was > 30 µM (inactive).

On to `Cn1cnc2c(F)c(Nc3ccc(Br)cc3Cl)c(C(=O)NOCCO)cc21` [SELUMETINIB], for which the Kd in assay [1] and in assay [2] was > 30 µM (inactive) throughout.

In the case of `COCCN1CCN(Cc2ccc(-c3n[nH]c4c3C(=O)c3c(NC(=O)NN5CCOCC5)cccc3-4)cc2)CC1` [RGB-286638], the Kd in assay [3] was > 30 µM (inactive); in assay [4], > 30 µM (inactive); in [5], 0.731 µM (active); in [6], > 30 µM (inactive); in assay [1] it was > 30 µM (inactive); in assay [7] it was 0.318 µM (active). For the same compound, the Kd in assay [2] was > 30 µM (inactive); in assay [8], 1.46 µM (active); in assay [9] it was > 30 µM (inactive); in assay [10] it was > 30 µM (inactive); in assay [11], > 30 µM (inactive); in assay [12], > 30 µM (inactive).

For `Cn1c(=O)n(-c2ccc(C(C)(C)C#N)cc2)c2c3cc(-c4cnc5ccccc5c4)ccc3ncc21` [DACTOLISIB], the Kd in [3], in assay [6], in assay [1], in assay [2], in assay [8] and in assay [11] was > 30 µM (inactive) in each case. Further, the Kd in [12] was > 30 µM (inactive).

As to `COc1cc2c(Oc3ccc4[nH]c(C)cc4c3F)ncnc2cc1OCCCN1CCCC1` [CEDIRANIB], the Kd in assay [1] and in [2] was > 30 µM (inactive) throughout.

As to `C[C@]1(O)C[C@@H](c2nc(-c3ccc4ccc(-c5ccccc5)nc4c3)c3c(N)nccn32)C1` [LINSITINIB], the Kd in [3], in assay [6], in assay [1], in assay [2], in [11] and in assay [12] was > 30 µM (inactive) in each case.

As to `CN(c1ncccc1CNc1nc(Nc2ccc3c(c2)CC(=O)N3)ncc1C(F)(F)F)S(C)(=O)=O` [PF-00562271], the Kd in assay [3] was 11.9 µM (active); in assay [6], > 30 µM (inactive); in [1], > 30 µM (inactive); in [2], > 30 µM (inactive); in [11], > 30 µM (inactive); in assay [12], 0.626 µM (active).

As for `C[C@@]1(C(=O)Nc2ccc(F)nc2)CCCN1c1nc(Nc2cc(C3CC3)n[nH]2)c2cccn2n1` [BMS-754807], the Kd in assay [1] and in assay [2] was > 30 µM (inactive) throughout.

For `NC[C@@](O)(c1ccc(Cl)cc1)c1ccc(-c2cn[nH]c2)cc1` [AT-13148], the Kd in assay [3], in [4], in assay [5], in assay [6], in [1] and in assay [7] was > 30 µM (inactive) throughout. Moreover, the Kd in [2] is > 30 µM (inactive); in assay [8] it was > 30 µM (inactive); in assay [9], 0.009 µM (active); in assay [10], > 30 µM (inactive); in assay [11], > 30 µM (inactive); in assay [12], > 30 µM (inactive).

The values above are taken from ChEMBL document CHEMBL3991601, “The target landscape of clinical kinase drugs” (Science, 2017).
